These results are taken from PubChem BioAssay (NCI).

Structures are written as SMILES.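 Where inhibition never reached the appropriate level, the endpoint shown equals the highest concentration tested. Otherwise, values were interpolated linearly from a five-concentration, 48-hour dose response in 96-well plates. At the TGI there is no net growth.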

Some test systems named below: HOP-62 NSCLC; MALME-3M melanoma; 786-0 renal; HT29 colon; SNB-75 CNS; HCC-2998 colon; ACHN renal; SK-MEL-28 melanoma; SNB-19 CNS; MDA-MB-435; SF-295 CNS; KM12 colon; RPMI-8226 leukemia; NCI/ADR-RES ovarian; NCI-H522 lung; BT-549 breast; SK-OV-3 ovarian.
Experiment in all cases: inhibition of tumour cell growth, NCI panel, 48 h

`c1ccc2c(c1)nn1c3ccc4nonc4c3[n-][n+]21`: the TGI in the assay on HOP-62 NSCLC, with MALME-3M melanoma, with 786-0 renal, in the assay with HT29 colon, with SNB-75 CNS and with HCC-2998 colon was greater than 100 µM each time. The TGI in the assay with ACHN renal, with SK-MEL-28 melanoma, in the assay on SNB-19 CNS, in the assay on MDA-MB-435, in the assay on SF-295 CNS and in the assay on KM12 colon was greater than 100 µM each time. In addition, the TGI with RPMI-8226 leukemia, in the assay with NCI/ADR-RES ovarian, in the assay with NCI-H522 lung and in the assay with BT-549 breast was greater than 100 µM throughout.
Take `CCOC(=O)/C(=C\NC(C)(C)C)c1nc2ccccc2[nH]1`: the TGI in the assay with HOP-62 NSCLC was 58.5 µM; in the assay on MALME-3M melanoma, 39.4 µM; in the assay with 786-0 renal, 72 µM; in the assay with HT29 colon, 42.6 µM; in the assay with SNB-75 CNS, 68.7 µM; with ACHN renal, 40.9 µM. The TGI was 78.8 µM with SK-OV-3 ovarian; 34.6 µM with SK-MEL-28 melanoma; greater than 100 µM with SNB-19 CNS; 38.6 µM in the assay with MDA-MB-435; 41.2 µM in the assay with SF-295 CNS; 44.1 µM with KM12 colon. Further, the TGI in the assay on RPMI-8226 leukemia was found to be 39.2 µM; with NCI/ADR-RES ovarian, 92.1 µM; in the assay on NCI-H522 lung it was 45.9 µM; in the assay on BT-549 breast, 68.3 µM.
Consider `COc1cc2oc(=O)cc(C)c2c(OC)c1O`, for which the TGI in the assay with HOP-62 NSCLC, in the assay with MALME-3M melanoma, in the assay with 786-0 renal, with HT29 colon, with SNB-75 CNS and with ACHN renal was greater than 100 µM each time. Also, the TGI in the assay on SK-OV-3 ovarian, in the assay with SK-MEL-28 melanoma, in the assay on SNB-19 CNS, in the assay on MDA-MB-435, in the assay on SF-295 CNS and in the assay on KM12 colon was greater than 100 µM in each case. The TGI in the assay with RPMI-8226 leukemia and in the assay on NCI/ADR-RES ovarian was greater than 100 µM each time.
With `C[C@@H]1[C@H](O)CC2=C(CC[C@@H](O)C2(C)C)[C@@]1(CO)CCc1ccoc1`, the TGI in the assay on HOP-62 NSCLC, in the assay with MALME-3M melanoma, in the assay on 786-0 renal, with HT29 colon, in the assay on SNB-75 CNS and in the assay with HCC-2998 colon was greater than 50 µM each time. For the same compound, the TGI in the assay with ACHN renal, in the assay on SK-OV-3 ovarian, with SK-MEL-28 melanoma, in the assay with SNB-19 CNS, in the assay with SF-295 CNS and with KM12 colon was greater than 50 µM each time. The TGI in the assay on NCI/ADR-RES ovarian and with BT-549 breast was greater than 50 µM throughout.
In the case of `N#C/C(c1nc2ccccc2[nH]1)=c1\s/c(=C(/N)O)c(=N)n1-c1ccccc1`, the TGI with HOP-62 NSCLC, with MALME-3M melanoma, in the assay with 786-0 renal, with HT29 colon, in the assay on SNB-75 CNS and with ACHN renal was greater than 100 µM throughout. In addition, the TGI in the assay on SK-OV-3 ovarian, with SK-MEL-28 melanoma, in the assay with SNB-19 CNS, in the assay on SF-295 CNS and with NCI-H522 lung was greater than 100 µM throughout.
For `[N-]=[N+]=NC1(c2ccccc2)C(=O)C(Cl)=C(c2ccccc2)N(c2ccccc2)C1=O` (centres undefined), the TGI in the assay with HOP-62 NSCLC, in the assay with MALME-3M melanoma, with 786-0 renal, in the assay on HT29 colon, in the assay on SNB-75 CNS and with HCC-2998 colon was greater than 100 µM throughout. Further, the TGI is greater than 100 µM in the assay on ACHN renal; 78.6 µM in the assay with SK-OV-3 ovarian; greater than 100 µM with SK-MEL-28 melanoma; greater than 100 µM in the assay on SNB-19 CNS; greater than 100 µM in the assay on SF-295 CNS; greater than 100 µM in the assay with KM12 colon. Further, the TGI in the assay with NCI-H522 lung is greater than 100 µM.
Regarding `Cc1ccc(/C=C/C(=N/NC(=O)N/N=C(/C=C/c2ccc(C)cc2)C(C)C)C(C)C)cc1`, the TGI in the assay with HOP-62 NSCLC, in the assay on MALME-3M melanoma, in the assay on 786-0 renal, in the assay with HT29 colon, in the assay with HCC-2998 colon and in the assay on ACHN renal was greater than 10 µM throughout. The TGI in the assay with SNB-19 CNS, in the assay with MDA-MB-435, with SF-295 CNS, with KM12 colon, with RPMI-8226 leukemia and with NCI/ADR-RES ovarian was greater than 10 µM throughout. Moreover, the TGI in the assay with NCI-H522 lung and in the assay with BT-549 breast was greater than 10 µM each time.
Regarding `Cc1c2n(c3ccccc13)S(=O)(=O)c1ccccc1-2`, the TGI is greater than 100 µM in the assay on MALME-3M melanoma; 22.7 µM in the assay on 786-0 renal; 35.6 µM with HT29 colon; greater than 100 µM in the assay on HCC-2998 colon; 43 µM in the assay on ACHN renal; 31.6 µM with SK-OV-3 ovarian. For the same compound, the TGI in the assay on SK-MEL-28 melanoma is greater than 100 µM; in the assay with SNB-19 CNS it was 46.9 µM; with MDA-MB-435, greater than 100 µM; in the assay on SF-295 CNS it was 53.2 µM; with KM12 colon, greater than 100 µM; in the assay with RPMI-8226 leukemia, greater than 100 µM. For the same compound, the TGI with NCI/ADR-RES ovarian, with NCI-H522 lung and in the assay on BT-549 breast was greater than 100 µM throughout.
On to `CC(=O)OC1OC(c2ccoc2)C[C@@]12C1CCC3O[C@]3(C)[C@]1(C)[C@H](OC(C)=O)[C@H](OC(C)=O)[C@H]2C` (some centres undefined), for which the TGI in the assay with HOP-62 NSCLC, in the assay on MALME-3M melanoma, with 786-0 renal, in the assay on HT29 colon, in the assay on HCC-2998 colon and with ACHN renal was greater than 37.5 µM each time. Besides, the TGI with SK-OV-3 ovarian, in the assay on SK-MEL-28 melanoma, with SNB-19 CNS, with SF-295 CNS, in the assay on KM12 colon and in the assay with NCI/ADR-RES ovarian was greater than 37.5 µM throughout. Moreover, the TGI in the assay on BT-549 breast was greater than 37.5 µM.
Consider `O=C(c1ccco1)N(C(=S)N1CCN(c2ccccc2)CC1)C1CCCCC1`, for which the TGI in the assay on HOP-62 NSCLC, with MALME-3M melanoma, in the assay with 786-0 renal, with HT29 colon, in the assay with SNB-75 CNS and in the assay with ACHN renal was greater than 100 µM in each case. For the same compound, the TGI with SK-OV-3 ovarian, in the assay on SNB-19 CNS, with SF-295 CNS, with KM12 colon, in the assay on RPMI-8226 leukemia and in the assay on NCI-H522 lung was greater than 100 µM each time.
Regarding `COCCOC(=O)NCn1cc(-c2ccccc2)nn1`, the TGI with HOP-62 NSCLC, in the assay with MALME-3M melanoma, in the assay on 786-0 renal, in the assay on HT29 colon, in the assay with HCC-2998 colon and with ACHN renal was greater than 100 µM in each case. Also, the TGI in the assay on SK-MEL-28 melanoma, in the assay with SNB-19 CNS, in the assay with MDA-MB-435, with SF-295 CNS, with KM12 colon and with RPMI-8226 leukemia was greater than 100 µM throughout. Further, the TGI in the assay with NCI/ADR-RES ovarian, in the assay with NCI-H522 lung and in the assay on BT-549 breast was greater than 100 µM in each case.
With `COc1cc2c(oc(=O)c3c4occc4cc(OC)c23)c2cccc(OCc3ccccc3)c12`, the TGI in the assay with HOP-62 NSCLC, in the assay with MALME-3M melanoma, in the assay with 786-0 renal, in the assay on HT29 colon, with SNB-75 CNS and with HCC-2998 colon was greater than 100 µM throughout. The TGI in the assay with ACHN renal, in the assay on SK-OV-3 ovarian, in the assay on SK-MEL-28 melanoma, in the assay with SNB-19 CNS, in the assay on SF-295 CNS and in the assay with KM12 colon was greater than 100 µM throughout. Moreover, the TGI with RPMI-8226 leukemia and in the assay with NCI-H522 lung was greater than 100 µM each time.
For `Cc1csc(NNC(N)=O)n1`, the TGI in the assay on HOP-62 NSCLC, in the assay on 786-0 renal, in the assay with HT29 colon, in the assay on SNB-75 CNS, in the assay on HCC-2998 colon and in the assay on ACHN renal was greater than 100 µM in each case. The TGI in the assay with SK-OV-3 ovarian, in the assay on SK-MEL-28 melanoma, in the assay with SNB-19 CNS, with MDA-MB-435, in the assay with SF-295 CNS and with KM12 colon was greater than 100 µM throughout. The TGI in the assay with NCI/ADR-RES ovarian, in the assay on NCI-H522 lung and in the assay with BT-549 breast was greater than 100 µM throughout.
With `O=C(c1cccc2ccccc12)C1S(=O)(=O)OCCOS1(=O)=O`, the TGI in the assay on HOP-62 NSCLC, in the assay on MALME-3M melanoma, in the assay on 786-0 renal, with HT29 colon, in the assay on HCC-2998 colon and in the assay with ACHN renal was greater than 100 µM each time. Further, the TGI in the assay with SK-MEL-28 melanoma was greater than 100 µM; in the assay on SNB-19 CNS, greater than 100 µM; in the assay on SF-295 CNS it was 0.0412 µM; in the assay with KM12 colon it was greater than 100 µM; in the assay with RPMI-8226 leukemia it was greater than 100 µM; with NCI/ADR-RES ovarian it was greater than 100 µM. Also, in the assay on BT-549 breast, the TGI is greater than 100 µM.
For the compound `CCOC(=O)C(C)Sc1nnc(COc2ccc(Cl)cc2)n1-c1ccccc1` (centres undefined), the TGI is 37.5 µM with HOP-62 NSCLC; 63.6 µM in the assay on MALME-3M melanoma; 71.2 µM with 786-0 renal; 31.9 µM in the assay with HT29 colon; greater than 100 µM in the assay on SNB-75 CNS; 49 µM in the assay with HCC-2998 colon. Also, the TGI in the assay with ACHN renal was 31.6 µM; in the assay on SK-OV-3 ovarian, greater than 100 µM; with SK-MEL-28 melanoma it was 49.2 µM; in the assay on SNB-19 CNS, 40.1 µM; with SF-295 CNS, 85.4 µM; with KM12 colon, 41.9 µM. Besides, the TGI in the assay on RPMI-8226 leukemia turned out to be 45.7 µM; with NCI-H522 lung, 5.16 µM.
